The record followed here is patent publication US8278469B2, “17-hydroxy-17-pentafluoroethyl-estra-4,9(10)-dien-11-aryl derivatives, method of production thereof and use thereof for the treatment of diseases” (Bayer Pharma Aktiengesellschaft, priority 2009, dated 2012).

Test [1] has as its target T1, human progesterone receptor B (PR-B) (Homo sapiens, UniProt P06401).
T1 construct: expressed in transfected cells; host or cells: SK-N-MC human neuroblastoma cells, stably transfected with pRChPR-B-neo and pMMTV-LUC
T1 sequence (P06401 1-933): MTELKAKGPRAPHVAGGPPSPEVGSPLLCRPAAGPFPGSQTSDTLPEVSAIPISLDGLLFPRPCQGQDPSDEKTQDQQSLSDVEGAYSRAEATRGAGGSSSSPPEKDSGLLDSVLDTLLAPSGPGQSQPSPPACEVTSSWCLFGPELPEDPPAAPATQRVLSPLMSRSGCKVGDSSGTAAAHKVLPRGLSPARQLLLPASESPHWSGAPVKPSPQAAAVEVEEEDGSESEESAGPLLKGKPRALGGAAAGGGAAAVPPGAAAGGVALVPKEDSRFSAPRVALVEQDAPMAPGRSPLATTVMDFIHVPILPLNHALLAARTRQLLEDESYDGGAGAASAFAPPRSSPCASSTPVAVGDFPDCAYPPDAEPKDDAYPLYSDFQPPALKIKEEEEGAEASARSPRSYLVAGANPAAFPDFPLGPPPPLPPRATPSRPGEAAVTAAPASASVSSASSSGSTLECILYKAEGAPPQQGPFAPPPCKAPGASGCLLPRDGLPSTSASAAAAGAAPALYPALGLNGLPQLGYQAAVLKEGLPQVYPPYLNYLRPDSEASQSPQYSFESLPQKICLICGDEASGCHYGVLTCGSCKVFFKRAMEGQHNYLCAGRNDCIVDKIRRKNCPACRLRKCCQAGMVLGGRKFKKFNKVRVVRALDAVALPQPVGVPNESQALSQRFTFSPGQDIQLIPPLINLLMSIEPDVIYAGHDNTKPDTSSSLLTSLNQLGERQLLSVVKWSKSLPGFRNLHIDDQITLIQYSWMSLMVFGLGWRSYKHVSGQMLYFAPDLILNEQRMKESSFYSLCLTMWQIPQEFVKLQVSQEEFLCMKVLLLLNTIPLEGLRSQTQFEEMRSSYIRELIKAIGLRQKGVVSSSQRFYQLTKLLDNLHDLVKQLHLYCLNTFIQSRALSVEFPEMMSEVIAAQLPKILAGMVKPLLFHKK
Put plainly: Progesterone receptor-antagonistic action in stable transfectants of SK-N-MC cells with human PR-B and MTV-LUC reporter. The class given is cell-based. The conditions noted are these: for Emax: read-out: Progesterone receptor B (PR-B) Efficacy. The procedure:
(§1) Progesterone Receptor-Antagonistic Action in Stable Transfectants of Human Neuroblastoma Cells (SK-N-MC Cells) with the Human Progesterone A or Progesterone B Receptor and an MTV-LUC Reporter Construct
(§2) SK-N-MC cells (human neuroblastoma cells), which have been stably transfected with plasmids, which express the human progesterone receptor B (pRChPR-B-neo) or the human progesterone receptor A (pRChPR-A-neo) and a reporter construct (pMMTV-LUC), were incubated for 24 hours either in the absence (negative control) or in the presence of increasing amounts of the respective test compound (0.01 nmol/l, 0.1 nmol/l, 1 nmol/l, 10 nmol/l, 100 nmol/l and 1 μmol/l), in order to determine the agonistic efficacy. As positive control of reporter gene induction, the cells were treated with the synthetic gestagen promegestone (0.01 nmol/l, 0.1 nmol/l, 1 nmol/l, 10 nmol/l, 100 nmol/l and 1 μmol/l). For determination of the antagonistic activity, the cells were treated with 0.1 nmol/l promegestone and additionally with increasing amounts of the respective test compound (0.01 nmol/l, 0.1 nmol/l, 1 nmol/l, 10 nmol/l, 100 nmol/l and 1 μmol/l). The activity of the LUC reporter gene (LUC=luciferase) was determined in the cell lysates and was measured as RLU (relative light units). All measured values are given as percentage efficacy and as EC50 or IC50 concentrations.
(§3) 11β-(4-Acetylphenyl)-20,20,21,21,21-pentafluoro-17-hydroxy-19-nor-17α-pregna-4,9-dien-3-one and 20,20,21,21,21-pentafluoro-17-hydroxy-11β-[4-(hydroxyacetyl)phenyl]-19-nor-17α-pregna-4,9-dien-3-one, very potent and therefore preferred examples from WO98/34947 and WO2008/058767, were tested as comparative compounds along with the test compound.

Test [2] deals with T2, human progesterone receptor A (PR-A) (Homo sapiens, UniProt P06401).
T2 construct: expressed in transfected cells; host or cells: SK-N-MC human neuroblastoma cells, stably transfected with pRChPR-A-neo and pMMTV-LUC
T2 sequence (P06401 1-769 isoform P06401-2): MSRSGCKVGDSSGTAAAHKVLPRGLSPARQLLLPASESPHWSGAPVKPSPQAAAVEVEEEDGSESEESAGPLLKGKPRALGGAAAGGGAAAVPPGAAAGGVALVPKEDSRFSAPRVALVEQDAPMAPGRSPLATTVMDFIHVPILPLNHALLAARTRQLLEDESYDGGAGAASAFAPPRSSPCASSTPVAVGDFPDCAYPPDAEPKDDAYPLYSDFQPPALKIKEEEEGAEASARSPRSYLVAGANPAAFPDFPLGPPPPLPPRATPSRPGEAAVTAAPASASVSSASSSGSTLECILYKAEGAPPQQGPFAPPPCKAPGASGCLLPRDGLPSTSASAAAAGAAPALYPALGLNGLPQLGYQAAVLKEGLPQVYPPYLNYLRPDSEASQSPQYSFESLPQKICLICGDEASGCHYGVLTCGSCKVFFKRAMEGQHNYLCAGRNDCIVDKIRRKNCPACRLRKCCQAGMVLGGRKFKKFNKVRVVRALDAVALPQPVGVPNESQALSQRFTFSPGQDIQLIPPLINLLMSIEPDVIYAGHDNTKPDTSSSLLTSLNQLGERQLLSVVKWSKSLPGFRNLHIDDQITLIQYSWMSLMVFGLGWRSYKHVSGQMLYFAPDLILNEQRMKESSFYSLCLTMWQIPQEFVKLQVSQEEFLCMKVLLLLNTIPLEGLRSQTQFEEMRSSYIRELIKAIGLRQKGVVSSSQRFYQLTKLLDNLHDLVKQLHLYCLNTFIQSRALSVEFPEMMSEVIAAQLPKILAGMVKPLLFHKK
Put plainly: Progesterone receptor-antagonistic action in stable transfectants of SK-N-MC cells with human PR-A and MTV-LUC reporter. The class given is cell-based. The conditions noted are these: for Emax: read-out: Progesterone receptor A (PR-A) Efficacy. How it is done: as §1, §2, §3

Setting [3] is: antagonistic activity against 0.1 nmol/l promegestone, SK-N-MC cells, 24 hours, LUC reporter, read-out: Progesterone receptor B (PR-B) Potency IC50.
Where [4] appears, read: antagonistic efficacy against 0.1 nmol/l promegestone, SK-N-MC cells, 24 hours.
Where [5] appears, read: antagonistic activity against 0.1 nmol/l promegestone, SK-N-MC cells, 24 hours, LUC reporter, read-out: Progesterone receptor A (PR-A) Potency IC50.

Like-named read-outs stand apart in the source and are kept apart here.

In general, IC50 refers to the concentration that gives 50% inhibition. `Cc1ccc(S(=O)(=O)N=S(C)(=O)c2ccc(-c3ccc([C@H]4C[C@@]5(C)C(CC[C@@]5(O)C(F)(F)C(F)(F)F)C5CCC6=CC(=O)CCC6=C54)cc3)cc2)cc1` (mixture of isomers) [Example 11, N-[{4′-[(11β,17β)-17-hydroxy-3-oxo-17-(pentafluoroethyl)estra-4,9-dien-11-yl]biphenyl-4-yl}(RS)(methyl)oxido-λ^6-sulphanylidene]-4-methylbenzene sulphonamide]: the IC50 in test [1] (setting [3]) and in test [2] (setting [5]) was 0.01 nM in each case. For the same compound, the Emax in test [1] (setting [4]) and in test [2] (setting [4]) was 100% each time.
As for `CCSc1ccc([C@H]2C[C@@]3(C)C(CC[C@@]3(O)C(F)(F)C(F)(F)F)C3CCC4=CC(=O)CCC4=C32)cc1` (stereo partly drawn) [Example 2, (11β,17β)-11-[4-(ethylsulphanyl)phenyl]-17-hydroxy-17-(pentafluoroethyl)estra-4,9-dien-3-one], the Emax in test [1] (setting [4]) and in test [2] (setting [4]) was 100% throughout.
Take `C[C@]12C[C@H](c3ccc(S(C)(=N)=O)cc3)C3=C4CCC(=O)C=C4CCC3C1CC[C@@]2(O)C(F)(F)C(F)(F)F` (stereo partly drawn) [Example 8, (11β,17β)-17-Hydroxy-11-[4-(RS-methylsulphonimidoyl)phenyl]-17-(pentafluoroethyl)estra-4,9-dien-3-one]: the Emax in test [1] (SK-N-MC, 24 h) was 100%; in test [2] (SK-N-MC, 24 h) it was 100%. Also, the half-inhibitory concentration (IC50) in test [1] (setting [3]) and in test [2] (setting [5]) was 0.9 nM in each case.
As for `C[C@]12C[C@H](c3ccc(-c4ccc(S)cc4)cc3)C3=C4CCC(=O)C=C4CC[C@H]3[C@@H]1CC[C@@]2(O)C(F)(F)C(F)(F)F` [Example 13, (11β,17β)-17-hydroxy-17-(pentafluoroethyl)-11-(4′-sulphanylbiphenyl-4-yl)estra-4,9-dien-3-one], the IC50 in test [1] (setting [3]) and in test [2] (setting [5]) was 0.072 nM throughout. For the same compound, the Emax in test [1] (setting [4]) and in test [2] (setting [4]) was 100% each time.
In the case of `C[S+]([O-])c1ccc([C@H]2C[C@@]3(C)[C@@H](CC[C@@]3(O)C(F)(F)C(F)(F)F)[C@@H]3CCC4=CC(=O)CCC4=C32)cc1` (mixture of isomers) [Example 3, (11β,17β)-17-Hydroxy-11-{4-[(RS)-methylsulphinyl]phenyl}-17-(pentafluoroethyl)estra-4,9-dien-3-one], the Emax in test [1] (SK-N-MC, 24 h) was found to be 100%; in test [2] (SK-N-MC, 24 h), 100%. The IC50 in test [1] (setting [3]) came to 0.12 nM; in test [2] (setting [5]), 0.11 nM.
Consider `CN(C)S(=O)(=O)c1ccc([C@H]2C[C@@]3(C)[C@@H](CC[C@@]3(O)C(F)(F)C(F)(F)F)[C@@H]3CCC4=CC(=O)CCC4=C32)cc1` [Example 15, 4-[(11β,17β)-17-Hydroxy-3-oxo-17-(pentafluoroethyl)estra-4,9-dien-11-yl]-N,N-dimethylbenzene sulphonamide], for which the Emax in test [1] (setting [4]) and in test [2] (setting [4]) was 100% in each case.
With `Cc1ccc(S(=O)(=O)N=S(C)(=O)c2ccc([C@H]3C[C@@]4(C)C(CC[C@@]4(O)C(F)(F)C(F)(F)F)C4CCC5=CC(=O)CCC5=C43)cc2)cc1` (mixture of isomers) [Example 7, N-[{4-[(11β,17β)-17-hydroxy-3-oxo-17-(pentafluoroethyl)estra-4,9-dien-11-yl]phenyl}(RS)(methyl)oxido-λ^6-sulphanylidene]-4-methylbenzene sulphonamide], the values for the half-maximal inhibitory concentration (IC50) in test [1] and in test [2] were 0.8 nM and 1 nM, respectively. Moreover, the Emax in test [1] (setting [4]) and in test [2] (setting [4]) was 100% throughout.
For `C[C@]12C[C@H](c3ccc(C(=O)CO)cc3)C3=C4CCC(=O)C=C4CC[C@H]3[C@@H]1CC[C@@]2(O)C(F)(F)C(F)(F)F` [20,20,21,21,21-pentafluoro-17-hydroxy-11β-[4-(hydroxyacetyl)phenyl]-19-nor-17α-pregna-4,9-dien-3-one, reference compound], the Emax in test [1] (SK-N-MC, 24 h) amounted to 100%; in test [2] (SK-N-MC, 24 h), 100%.
